# Values quoted from earlier work as cited in patent US7045166B2, “Sweetener compositions containing fractions of inulin” (priority 1998, dated 2006).
# Assays:
# [1] = relative to sucrose (sugar)
# [2] = artificial sweetener, general statement
Compound,sweetness of an equivalent dose of sucrose [1] [times],heat stability [2]
COC(=O)[C@H](Cc1ccccc1)NC(=O)[C@H](CC(=O)O)NCCC(C)(C)C [Neotane],8000,
"OC[C@H]1O[C@H](O[C@]2(CCl)O[C@H](CCl)[C@@H](O)[C@@H]2O)[C@H](O)[C@@H](O)[C@H]1Cl [Sucralose, sucralose]",600,heat stable
